Measurements published in US6897348B2, “Bandage, methods of producing and using same” (Kimberly Clark Worldwide, Inc, priority 2001, dated 2005).

Columns and labels:
[1] = system: full thickness (excisional) wounds on dorsal skin; test: Accelerated wound healing study, full thickness acute wound model (re-epithelialization, epithelial thickness); type: in vivo; settings: rat full thickness wound
Method: Following the assessment of hemostatic agents, a study was conducted using the accelerated wound healing study protocol which follows. In the examples of the study, a series of comparative control bandage substrates were evaluated as to the speed at which wounds covered/dressed with such bandages healed. In particular, the rates of re-epithelialization were measured for wounds dressed by such control dressing materials. Additionally, the rates at which wounds heal that have been treated with a series of test compounds in accordance with the present invention, were also measured and compared with the controls.
For the purposes of the examples, the test compounds consisted of chitosan, Niacinamide ascorbate (hereinafter NA) prepared by the method which follows; and chitosan niacinamide ascorbate salt (hereinafter CNA, prepared by the method which follows), 2-ply surgical gauze, and Comfeel® Plus Clear Dressing (Colorplast).
Wounds were treated with test and control articles on the day of wounding (day 0) on 2, 4, 6, 8, 10, 12, and 14 days after the injury. CNA (freeze dried) was cut to the approximate size of the wound and applied over the wound. Chitosan (powder) and NA (powder) were applied over the wound to the depth that covered the underlying tissue. The gauze was cut to extend approximately 0.5 cm beyond the margins of the wound. The Comfeel® Plus dressing was cut to the approximate size of the wound and applied over the wound and also used to cover all test and control articles over the entire dorsal surface of the animal. […]
For the study, twenty four albino rats (12M/12F), each weighing between 250-300 g, were anesthetized (90 mg/Kg Ketamine HCL and 10 mg/Kg Xylazine) and the entire dorsal region of each rat was shaved. […] The epithelial thickness of the three sections of the wound (margin, center and midpoint between these two) was measured by morphometric analysis of the microscopic image using Image-Pro Plus software, Version 3.0 (Media Cybernetics). The average thickness of these sites within the wound was determined for wound healing of the entire site.

human blood = test: Lee and White Coagulation Assay in Human Blood; settings: samples in dried form (5 mg/ml), triplicate
Method: For the purposes of this application, and as a preliminary matter, a series of hemostatic agents were evaluated in order to determine a relative comparison of the effectiveness of such compounds on human blood. Each of the compounds were evaluated in the comparison against the standard control (human blood) and the negative control heparin, which is an anti-coagulant. […] Lee and White Coagulation Assay in Human Blood [table]

Row | Compound | improvement in re-epithelialization over the gauze control ([1]; day 5) [%] | re-epithelialization compared with the Comfeel control ([1]; over 15 days) | re-epithelialization compared with the gauze control ([1]; over 15 days) | BLOOD CLOTTING TIME (MIN) (human blood)
1 | NC(=O)c1cccnc1.O=C1O[C@H]([C@@H](O)CO)C(O)=C1O [NA, Niacinamide ascorbate] | > 50 | larger growth rates (re-epithelialization rates) | larger numbers for re-epithelialization than the control | 
2 | Heparin |  |  |  | NC (NC = No Clot for 60 min)
